Assay results from patent US20140296146A1, “Thermostable Inhibitors of Activation of the Blood Clotting System Through Contact with Foreign Surfaces” (Synapse B.V., priority 2011, published 2014).

T1: h-FXIIa (Homo sapiens, UniProt P00748)
T1 construct: purchased Enzyme Research Laboratories FXIIa 1212A
T1 sequence (P00748 373-615 limits assumed): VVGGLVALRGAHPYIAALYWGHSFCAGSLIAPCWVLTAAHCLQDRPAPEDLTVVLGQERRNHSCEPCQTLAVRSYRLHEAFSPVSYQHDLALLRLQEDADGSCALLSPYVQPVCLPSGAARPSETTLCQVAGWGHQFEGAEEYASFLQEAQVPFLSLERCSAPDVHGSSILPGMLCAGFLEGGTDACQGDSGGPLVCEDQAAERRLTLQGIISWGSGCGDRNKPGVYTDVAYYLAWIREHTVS
T1 sequence (P00748 20-372 partner limits assumed): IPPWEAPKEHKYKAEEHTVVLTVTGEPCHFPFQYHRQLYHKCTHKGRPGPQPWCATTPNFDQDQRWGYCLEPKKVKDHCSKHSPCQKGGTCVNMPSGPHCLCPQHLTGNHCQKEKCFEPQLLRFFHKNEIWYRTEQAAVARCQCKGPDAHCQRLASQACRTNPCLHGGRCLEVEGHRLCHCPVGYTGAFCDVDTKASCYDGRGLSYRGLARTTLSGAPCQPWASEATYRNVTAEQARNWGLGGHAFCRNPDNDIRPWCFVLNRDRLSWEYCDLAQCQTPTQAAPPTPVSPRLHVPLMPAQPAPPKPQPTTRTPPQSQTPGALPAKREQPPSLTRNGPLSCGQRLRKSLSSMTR

T2: h-FXIIa (human, UniProt P00748 20-615)
T2 construct: also called factor XIIa
T2 sequence (looked up): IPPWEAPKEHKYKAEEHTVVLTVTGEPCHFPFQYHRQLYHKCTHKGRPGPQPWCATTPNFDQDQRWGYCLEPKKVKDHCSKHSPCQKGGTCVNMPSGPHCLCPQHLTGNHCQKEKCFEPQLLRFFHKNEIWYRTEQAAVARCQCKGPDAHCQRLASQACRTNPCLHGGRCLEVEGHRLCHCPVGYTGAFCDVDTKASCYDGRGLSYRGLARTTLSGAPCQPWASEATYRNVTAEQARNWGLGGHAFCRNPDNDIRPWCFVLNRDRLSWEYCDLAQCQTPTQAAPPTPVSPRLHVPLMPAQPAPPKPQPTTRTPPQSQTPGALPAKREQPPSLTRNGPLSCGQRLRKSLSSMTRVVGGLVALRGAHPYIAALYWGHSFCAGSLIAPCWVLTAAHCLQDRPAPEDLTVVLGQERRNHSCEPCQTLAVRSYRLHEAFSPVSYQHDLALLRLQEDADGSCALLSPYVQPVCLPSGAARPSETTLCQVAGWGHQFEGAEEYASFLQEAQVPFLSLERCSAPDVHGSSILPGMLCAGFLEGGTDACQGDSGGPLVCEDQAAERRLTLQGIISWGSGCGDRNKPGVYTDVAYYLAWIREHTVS


Key:
[1] = TICA1 Ala-scan with intact disulfides, activity vs TICA1; conditions: single amino acid substituted by alanine
Source text: Every single amino acid was substituted by alanine except for cysteine. […] See also FIG. 6.

[2] = TICA1: dependence of activity on disulfides (FIG. 5); conditions: relative to TICA1 with 3 disulfides = 100%
Source text: FIG. 5: Thermostable Inhibitor of Coagulation Activation (TICA1): Dependence on Disulfides.

h-FXIIa [3] = molecular target: T1, h-FXIIa; assay: Effect of inhibitors on hydrolysis of S2302 by h-FXIIa; format: biochemical
Procedure: Materials • S2302 From Chromogenic, lot # N0398718 SEQ0860, exp. date 2012-07. Water added on 7 Oct. […] On 3 Aug. […] Product code FXIIa 1212A, lot #FXIIa 2520PL. Bottle with 0.5 mg was reconstituted with 370 μl pure water. […] Buffer 4 mM NaAc, 150 mM NaCl (pH 5.3). Preparation was divided into 20 μl amounts and frozen at −80° C. • Hepes735 140 mM NaCl, 20 mM Hepes, 0.02% NaN3 (pH 7.35). • BSA5 Hepes735+5 mg/ml BSA. • CTI Prepared on 17 Dec. 2004, 0.141 mg/ml, i.e. 0.141/12028=11.7*10^−6 M (11.7 μM). One portion was thawed and divided into 3 parts. Part 1 was frozen at −80° C.; part 2 was kept at RT; and part 3 was incubated 30 min at 95° C. and then kept at RT.
(§1) Stock FXIIa was diluted 700× in BSA5. The inhibitor was diluted in BSA5 as indicated. Wells contained 70 μl diluted FXIIa (5 nM final), 70 μl inhibitor and 20 μl S2302 (475 or 462.5 μM final). The reaction was started after 5 min heating on the heating plate with S2302. Filters 405 nm and 490 nm reference. Found mΔA/min was multiplied by 2.14 to get the figure for a 1 cm path.
The residual activity (V) was fitted against the PTI concentration with equation:
V=(E+(sqrt(Ê2+2*E*(Ki−I)+Î2+2*I*Ki+Kî2)−E−I−Ki)/2)*kcat*S/(Km+S)
(§2) in which E=[FXIIa], Ki is the dissociation constant, I=[Inhibitor], kcat and Km are Michaelis constants and S=[S2302].

contact activation = assay: Clotting time of blood taken on inhibitor only, without Ca2+ binding substance; conditions: tube heated for one hour in boiling water; 10 μg/ml
Procedure: Indeed STI inhibited contact activation so well that blood taken on a solution not containing sodium citrate or another substance that binds Ca^2+ ions but only STI (10 μg/ml) remained fluid for over 45 minutes, under conditions where in absence of STI it would clot in less than 5 min. […] CTI under similar circumstances, at 10 μg/ml, lost much of its activity because a clotting time of <15 min. was observed.

h-FXIIa [4] = molecular target: T2, h-FXIIa; assay: S2302 hydrolysis by h-FXIIa (5.01 nM); inhibitor at RT during 72 hrs, against -80° C.
Procedure: as §1, with “ΔmA/min” for “mΔA/min”

h-FXIIa [5] = molecular target: T2, h-FXIIa; assay: S2302 hydrolysis by h-FXIIa (5.01 nM); inhibitor 30 min 95° C.
Procedure: as §1, with “ΔmA/min” for “mΔA/min”

h-FXIIa [6] = molecular target: T2, h-FXIIa; assay: S2302 hydrolysis by h-FXIIa, fit of residual activity
Procedure: as §1, §2

h-FXIIa [7] = molecular target: T2, h-FXIIa; assay: S2302 hydrolysis by h-FXIIa (5 nM), fit of residual activity; dissociation constant of the complex
Procedure: as §1, §2

| clotting time of blood after sterilization of the tube containing inhibitor (contact activation) | Res. Act. (%) (h-FXIIa [4]) | Ki (h-FXIIa [5]) | Ki (h-FXIIa [6]) | Ki (h-FXIIa [7]) | Molecule | Activity vs TICA1 [1] | activity [2] | Ki (h-FXIIa [3]; Ki, Table 2, inhibitory activity of different polypeptides) | Ki (h-FXIIa [3]; ki F.XIIa (ng/ml), After heating) | Ki (h-FXIIa [3]; ki F.XIIa (ng/ml), Before heating) |
| --- | --- | --- | --- | --- | --- | --- | --- | --- | --- | --- |
| – | – | – | – | – | CC[C@H](C)[C@@H]1NC(=O)[C@H](CCCNC(=N)N)NC(=O)[C@@H]2CCCN2C(=O)[C@@H](NC(=O)[C@@H](NC(=O)[C@@H](N)CCCNC(=N)N)C(C)C)CSSC[C@@H]2NC(=O)[C@H](CCC(=O)O)NC(=O)[C@H](C)NC(=O)[C@H](CC(C)C)NC(=O)[C@@H]3CSSC[C@@H](C(=O)NCC(=O)O)NC(=O)[C@H](Cc4ccc(O)cc4)NC(=O)CNC(=O)[C@H](Cc4c[nH]cn4)NC(=O)[C@H](CCC(=O)O)NC(=O)[C@H](CC(C)C)NC(=O)[C@H](CSSC[C@H](NC(=O)[C@H](CCCCN)NC(=O)[C@H](CCSC)NC(=O)[C@H](CC(C)C)NC1=O)C(=O)N[C@@H](CCCCN)C(=O)N[C@@H](CCCCN)C(=O)N[C@@H](CC(=O)O)C(=O)N[C@@H](CO)C(=O)N[C@@H](CC(=O)O)C(=O)N3)NC(=O)[C@H](C(C)C)NC2=O [TICA1] | 100% | 100% | 25.5 nM | 26 nM | 25.4 nM |
| < 15 min | 86% | 5.1 nM | 2.9 nM | 2.9 nM | Corn trypsin inhibitor (other, UniProt P01088 29-138, looked up, also called CTI) SAGTSCVPGWAIPHNPLPSCRWYVTSRTCGIGPRLPWPELKRRCCRELADIPAYCRCTALSILMDGAIPPGPDAQLEGRLEDLPGCPREVQRGFAATLVTEAECNLATIS | – | – | – | – | – |
